Measurements reported in patent EP0103895A2, “Novel hydroxylamine derivatives, production and use thereof” (MEIJI SEIKA KABUSHIKI KAISHA, priority 1982, dated 1984).

System: Liver fluke; Fasciola hepatica (F. hepatica)
Experiment: Test of anthelmintic effect against rat infected experimentally with liver fluke (Test Examples A11, B11, C11, D11)
Assay type: in vivo

`C=CCN(OC)C(C)=O` [Compound B1, N-allyl-N-acetyl-O-methylhydroxylamine] was tested, and the “Condition of fluke body” value (rat, 50 mg/Kg x 5) was “dead”, the “Presence or absence of fluke egg in fecal matter On 21st day after the last administration” value (rat, 50 mg/Kg x 5) was “-” and the “anthelmintic effect” value (rats, five administrations in a dose of 50 mg/Kg each) was “marked antihelmintic effect”.
